We go through one molecule from patent US20260224680A1, “COMPOSITIONS FOR INDUCING OR RESCUING GLYCOLYSIS AND METHODS OF USE THEREOF” (Arizona Board of Regents on behalf of Arizona State …, priority 2023, published 2026).

The structures appear in SMILES notation.

One assay relates to B16F10 cancer cells. The assay can be described thus: Proliferation assay using MTT, B16F10. Type of assay: cell-based, mouse. As to conditions: in vitro.
The test system of assay [1] is DCs. Nature of the assay: Extracellular flux assays on DCs in vitro (ECAR, respiration). Type of assay: cell-based, mouse. The protocol:
(§1) Data represented as mean±std error.
Next, the ability of the F16BP MPs to rescue glycolysis in DCs in the presence of glycolytic inhibitor PFK15 was evaluated using extracellular flux assays. DCs were cultured with either PFK15, F16BP MPs, soluble fructose-6-phosphate (F6P—upstream of PFKFB3) or PFK15+F16BP MPs, or individual components of the F16BP MPs for 2 hr, and extracellular acidification rate (ECAR—rate of glycolysis) measurements were obtained. […] This is important since under conditions of inflammation, DCs need to perform enhanced levels of glycolysis to support the inflammatory protein production.

The next assay deals with B16F10 tumors. The assay can be described thus: B16F10 melanoma model, adoptive transfer of Vacc DCs with PFK15. Type of assay: in vivo, mouse. As to conditions: day 16; vs no treatment control. As for the experimental part: To test the versatility of the F16BP-PFK15 system, another aggressive B16F10 melanoma model was chosen (FIG. 4A). In this model, DCs were loaded with F16BP MPs intercalated with mRNA isolated from B16F10 cancer cells, and poly(IC) (Vacc DCs) and adoptively transferred in mice containing B16F10 tumors. This cellular therapy's ability to modulate adaptive immune responses, reduced tumor growth, and improve survival were measured.
To test if the metabolic rescue in DCs can be applied to adoptive cell therapy, adoptive transfer of DC-vaccines was tested in mice (FIG. 16). […] Specifically, 0.75×10^6 B16F10 cells were injected in C57BL/6j immunocompetent mice, and PFK15 was injected every alternate day for the duration of the study (FIG. 16). Moreover, ex vivo DCs loaded with F16BP(mRNA+poly(IC)) (Vacc DCs) or DCs loaded with F16BP MPs were adoptively transferred using retro-orbital injections (RO) on days 6 and 19 (FIG. 15).
To test if the Vacc DCs could modulate the immune responses after their administration, on day 16, spleen, lymph nodes, and tumors were isolated from different conditions and stained for the activation profile of DCs, and T cells. […]
Since Vacc DCs are administered systemically, spleen and cervical lymph nodes were also analysed for the changes in innate and adaptive immune responses (FIG. 19 through FIG. 22).

The test system of assay [2] is DCs. The assay can be described thus: DC activation by flow cytometry in vitro. In kind it is cell-based, mouse. As to conditions: in the presence of poly(IC); PFK15 conc.=25 μM.
Source text: as §1
To test if F16BP MPs can modulate the function of DCs, mRNA-based and peptide-based vaccine F16BP MPs were formulated. These vaccines were generated by intercalating di-phosphorylated melanoma peptide antigen Tyrosine related protein 2 (pTRP2), and poly(IC) and mRNA derived from melanoma cells, which contain several phosphate groups in their backbone (FIG. 12). Since pTRP2p, and poly(IC) have phosphate groups, these molecules can be incorporated into the F16BP MPs using the calcium-phosphate chemistry. The amount of pTRp2, and poly(IC) incorporated within the F16BP MPs was determined to be 78±3.4, and 50.9±7.9 μg, respectively. Next, F16BP MPs intercalated with poly(IC) and pTRP2 were incubated with DCs overnight, and flow cytometry was utilized to test if these particles could activate DCs (FIG. 2I and FIG. 2J).
On the technique in general: Flow cytometry measures light scatter and fluorescence of single cells or particles in a stream.

A further assay relates to YUMM1.1 cancer cells. The assay can be described thus: Proliferation assay using MTT, YUMM1.1. As to conditions: in vitro. Type of assay: cell-based, mouse.
Setting [3] is: DCs cultured 2 hr, vs no treatment control.

As for `O=C(/C=C/c1ccc2ccccc2n1)c1ccncc1` [PFK15], the “proliferation of B16F10 cancer cells” value with B16F10 cancer cells was “effective in preventing proliferation”. In addition, in the assay with DCs [1] (setting [3]), the “glycolysis (ECAR)” value was “lower than no treatment control” and the “glycolytic capacity (ECAR)” value is reported as “lower than no treatment control”. Also, in the assay on DCs [1] (in the presence of poly(IC)), the “glycolysis (ECAR)” value was “decreased” and the “glycolytic capacity (ECAR)” value was “decreased”. The “total number of CD8+ T cells in the tumor” value in the assay with B16F10 tumors is listed as “significantly decreased”. In the assay on DCs [2], the “activation of DCs (CD80+CD86+ in CD11c+)” value is “able to decrease”. Besides, in the assay on YUMM1.1 cancer cells, the “proliferation of YUMM1.1 cancer cells” value is given as “effective in preventing proliferation”.
